Assay results published in PubChem BioAssay AID2060513 (Molecular Pharmacology Branch, DTP, NCI, 2025).

Tested on: 299254-011-R-J1-PDC complex spheroids viability
Assay: Anticancer human tumor 299254-011-R-J1-PDC patient-derived melanoma cell line growth inhibition [GQUAD]
Settings: for IC50: curve of first compound; for viability, T/C: stronger effect = lower value
Excerpt: DNA G-quadruplex Stabilizer Agents in Combinations in Complex Spheroids
A high-throughput screen of multi-cell type tumor spheroids was designed to identify active combinations of DNA G-quadruplex stabilizer agents and targeted small molecules. Complex spheroids include a stromal component modeled by human endothelial cells (HUVEC) and fibroblasts modeled by human mesenchymal stem cells (MSCs). The concentration ranges selected for each drug and investigational agent were based upon clinically achievable concentrations if the clinical Cmax of the agent was known.
Compounds. The drugs and investigational agents: pidnarulex (CX-5461; NSC782164), APTO-253 (NSC789042), BRACO-19 (NSC847499), peposertib (NSC802822), ceralasertib (NSC780249), elimusertib (NSC800525), camonsertib (NSC841442), AZD-1390 (NSC803789), olaparib (NSC753686), talazoparib (NSC767125), ART-558 (NSC835418), sotorasib (NSC818433), MRTX-1133 (NSC836407), SN-38 (NSC673596), topotecan (NSC609699), etoposide (NSC141540), doxorubicin (NSC123127), gemcitabine (NSC613327), 5-fluorouracil (NSC19893), paclitaxel (NSC125973), vemurafenib (NSC761431), panobinostat (NSC761190), R-306465 (JNJ-16241199; NSC773264), adavosertib (NSC754352), TP-3654 (NSC805149), carboplatin (NSC241240), KSQ-4279 (NSC840948), and staurosporine (NSC755774) were obtained from the National Cancer Institute (NCI) Developmental Therapeutics Program Chemical Repository (34). The FDA-approved anticancer drug set is available from the NCI Developmental Therapeutics Program. […] The stock solutions were prepared in dimethyl sulfoxide (DMSO, Sigma-Aldrich, St. Louis, MO, cat. D2650) at 800-fold the tested concentration and stored at -70 degrees C prior to their use. All drugs and investigational agents were tested over a range starting from a high concentration at or near the clinical Cmax and decreasing in half-log increments. If the clinical Cmax for an agent had not been determined, the highest concentration tested was 10 microM.
2.3 Cell Culture. All cells were maintained in an incubator at 37 degrees C and 5% CO2 with 95% humidity. The PDC lines were cultured according to standard operating procedures established by the NCI PDMR. All PDCs were thawed and cultured in Matrigel-coated flasks prepared with a working solution of 1X Ham's F-12 nutrient mix, without supplementation (Invitrogen, cat. 11765054), 100 U/mL penicillin-streptomycin (Invitrogen, cat. 15140122), and 2.5% Matrigel (Corning Inc., cat. 354248) for the first three passages. The 857933-349-R-J2-PDC line was cultured in 6C/Colon 1B media, which includes advanced DMEM/F-12 (Thermo Fisher Scientific, cat. 12634028), 10 mM HEPES (Thermo Fisher Scientific, cat. 15630080), 1X GlutaMAX supplement (Thermo Fisher Scientific, cat. 35050061), 0.1 mg/mL primocin (InvivoGen, cat. ant-pm-2), 10% defined fetal bovine serum, heat inactivated (HyClone Laboratories Inc., cat. SH30070.03HI), 50% L-WRN conditioned media (ATCC, cat. CRL-3276), 1.25 mM N-Acetyl-L-cysteine (Sigma-Aldrich, cat. A9165), 10 mM nicotinamide (Sigma-Aldrich, cat. N0636), 1X B-27 supplement (Thermo Fisher Scientific, cat. 17504044), 1X N-2 supplement (Thermo Fisher Scientific, cat. 17502048), 10 microM Y-27632 dihydrochloride (Tocris Bioscience, cat. 1254), and 50 ng/mL human EGF recombinant protein (Thermo Fisher Scientific, cat. PHG0311). The 485176-168-R4-J1-PDC line was cultured in Panc media, which includes all 6C/Colon 1B media components plus 100 ng/mL human FGF-10 (Thermo Fisher Scientific, cat. 100-26), 500 nM SB-431542 (Selleckchem, cat. S1067), and gastrin (Tocris, cat. 3006).
[…]
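Note: spheroids exposed to the agents for seven days before readout.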
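Throughout, for viability, T/C: percent viability relative to DMSO vehicle control wells = 100%.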

## COc1cc(C2c3cc4c(cc3C(OC3OC5COC(C)OC5C(O)C3O)C3COC(=O)C23)OCO4)cc(OC)c1O (configuration not stated) + CN(C)c1ccc(Nc2c3ccc(NC(=O)CCN4CCCC4)cc3nc3cc(NC(=O)CCN4CCCC4)ccc23)cc1
Second compound 0.0316 µM
  IC50: > 10 µM
Second compound 0.1 µM
  IC50: > 10 µM
Second compound 0.316 µM
  IC50: > 10 µM
Second compound 1 µM
  IC50: > 10 µM
Second compound 3.16 µM
  IC50: > 10 µM
Second compound 10 µM
  IC50: > 10 µM
Second compound 0.0316 µM, first compound 0.0316 µM
  viability, T/C: 117%
Second compound 0.0316 µM, first compound 0.1 µM
  viability, T/C: 102%
Second compound 0.0316 µM, first compound 0.316 µM
  viability, T/C: 115%
Second compound 0.0316 µM, first compound 1 µM
  viability, T/C: 88.3%
Second compound 0.0316 µM, first compound 3.16 µM
  viability, T/C: 79.4%
Second compound 0.0316 µM, first compound 10 µM
  viability, T/C: 88.7%
Second compound 0.1 µM, first compound 0.0316 µM
  viability, T/C: 116%
Second compound 0.1 µM, first compound 0.1 µM
  viability, T/C: 105%
Second compound 0.1 µM, first compound 0.316 µM
  viability, T/C: 92.1%
Second compound 0.1 µM, first compound 1 µM
  viability, T/C: 92.6%
Second compound 0.1 µM, first compound 3.16 µM
  viability, T/C: 101%
Second compound 0.1 µM, first compound 10 µM
  viability, T/C: 87.1%
Second compound 0.316 µM, first compound 0.0316 µM
  viability, T/C: 104%
Second compound 0.316 µM, first compound 0.1 µM
  viability, T/C: 107%
Second compound 0.316 µM, first compound 0.316 µM
  viability, T/C: 93.6%
Second compound 0.316 µM, first compound 1 µM
  viability, T/C: 88.2%
Second compound 0.316 µM, first compound 3.16 µM
  viability, T/C: 87.2%
Second compound 0.316 µM, first compound 10 µM
  viability, T/C: 76.8%
Second compound 1 µM, first compound 0.0316 µM
  viability, T/C: 105%
Second compound 1 µM, first compound 0.1 µM
  viability, T/C: 107%
Second compound 1 µM, first compound 0.316 µM
  viability, T/C: 123%
Second compound 1 µM, first compound 1 µM
  viability, T/C: 93.5%
Second compound 1 µM, first compound 3.16 µM
  viability, T/C: 87.2%
Second compound 1 µM, first compound 10 µM
  viability, T/C: 95.2%
Second compound 3.16 µM, first compound 0.0316 µM
  viability, T/C: 102%
Second compound 3.16 µM, first compound 0.1 µM
  viability, T/C: 108%
Second compound 3.16 µM, first compound 0.316 µM
  viability, T/C: 118%
Second compound 3.16 µM, first compound 1 µM
  viability, T/C: 81.2%
Second compound 3.16 µM, first compound 3.16 µM
  viability, T/C: 81.3%
Second compound 3.16 µM, first compound 10 µM
  viability, T/C: 81.3%
Second compound 10 µM, first compound 0.0316 µM
  viability, T/C: 89.2%
Second compound 10 µM, first compound 0.1 µM
  viability, T/C: 105%
Second compound 10 µM, first compound 0.316 µM
  viability, T/C: 101%
Second compound 10 µM, first compound 1 µM
  viability, T/C: 107%
Second compound 10 µM, first compound 3.16 µM
  viability, T/C: 98%
Second compound 10 µM, first compound 10 µM
  viability, T/C: 81.8%
